This passage reports Classification results from patent US20050282743A1, “Molecular interactions in cells” (Arbor Vita Corporation, priority 2001, published 2005).

Holding throughout (assay): G' assay (10 uM PL peptide), results of TABLE 7 and TABLE 12
What all share (format): binding

Assay [1] concerns the target T1, PDZ protein (GST-PDZ fusion) (Homo sapiens, UniProt P29475).
T1 construct: made in house; host or cells: E. coli (DH5alpha, BL21 or JM109)
The note with it: PDZ NOS1, PDZ Domain 1. The gist of the method:
(§1)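 Biotinylated PL peptides at 10 uM (vs 20 uM in G^0 assay) bound to GST-PDZ fusions; PDZ protein at 5 ug/ml unless another concentration listed. Bound peptide read as A450 nm, classified 0–5 (0 = A450 0; 5 = A450 >4 repeated).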

Assay [2] concerns the target T2, PDZ protein (GST-PDZ fusion) (Homo sapiens, UniProt Q9NSN8).
T2 construct: made in house; host or cells: E. coli (DH5alpha, BL21 or JM109)
T2 sequence (Q9NSN8 1-517): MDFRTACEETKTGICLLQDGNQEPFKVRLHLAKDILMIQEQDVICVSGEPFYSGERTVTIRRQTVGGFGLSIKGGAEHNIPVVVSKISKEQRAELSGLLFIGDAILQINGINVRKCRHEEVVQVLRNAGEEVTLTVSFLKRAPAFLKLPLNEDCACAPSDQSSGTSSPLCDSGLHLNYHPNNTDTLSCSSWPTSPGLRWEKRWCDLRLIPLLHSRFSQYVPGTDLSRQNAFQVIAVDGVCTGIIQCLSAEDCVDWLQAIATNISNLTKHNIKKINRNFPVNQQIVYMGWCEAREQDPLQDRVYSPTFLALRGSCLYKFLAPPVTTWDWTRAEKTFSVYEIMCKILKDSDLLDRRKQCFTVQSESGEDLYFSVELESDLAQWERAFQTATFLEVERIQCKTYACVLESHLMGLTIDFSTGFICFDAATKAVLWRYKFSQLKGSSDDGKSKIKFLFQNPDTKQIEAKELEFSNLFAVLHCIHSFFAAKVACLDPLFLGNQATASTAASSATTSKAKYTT
The note with it: PDZ Syntrophin gamma-1, PDZ Domain 1. The gist of the method:
as §1

For assay [3], the target named is T3, PDZ protein (GST-PDZ fusion) (Homo sapiens, UniProt Q07157).
T3 construct: made in house; host or cells: E. coli (DH5alpha, BL21 or JM109)
The gist of the method: as §1

The target in assay [4] is T4, PDZ protein (GST-PDZ fusion) (Homo sapiens, UniProt Q9Y3R0).
T4 construct: made in house; host or cells: E. coli (DH5alpha, BL21 or JM109)
T4 sequence (Q9Y3R0 1-1128): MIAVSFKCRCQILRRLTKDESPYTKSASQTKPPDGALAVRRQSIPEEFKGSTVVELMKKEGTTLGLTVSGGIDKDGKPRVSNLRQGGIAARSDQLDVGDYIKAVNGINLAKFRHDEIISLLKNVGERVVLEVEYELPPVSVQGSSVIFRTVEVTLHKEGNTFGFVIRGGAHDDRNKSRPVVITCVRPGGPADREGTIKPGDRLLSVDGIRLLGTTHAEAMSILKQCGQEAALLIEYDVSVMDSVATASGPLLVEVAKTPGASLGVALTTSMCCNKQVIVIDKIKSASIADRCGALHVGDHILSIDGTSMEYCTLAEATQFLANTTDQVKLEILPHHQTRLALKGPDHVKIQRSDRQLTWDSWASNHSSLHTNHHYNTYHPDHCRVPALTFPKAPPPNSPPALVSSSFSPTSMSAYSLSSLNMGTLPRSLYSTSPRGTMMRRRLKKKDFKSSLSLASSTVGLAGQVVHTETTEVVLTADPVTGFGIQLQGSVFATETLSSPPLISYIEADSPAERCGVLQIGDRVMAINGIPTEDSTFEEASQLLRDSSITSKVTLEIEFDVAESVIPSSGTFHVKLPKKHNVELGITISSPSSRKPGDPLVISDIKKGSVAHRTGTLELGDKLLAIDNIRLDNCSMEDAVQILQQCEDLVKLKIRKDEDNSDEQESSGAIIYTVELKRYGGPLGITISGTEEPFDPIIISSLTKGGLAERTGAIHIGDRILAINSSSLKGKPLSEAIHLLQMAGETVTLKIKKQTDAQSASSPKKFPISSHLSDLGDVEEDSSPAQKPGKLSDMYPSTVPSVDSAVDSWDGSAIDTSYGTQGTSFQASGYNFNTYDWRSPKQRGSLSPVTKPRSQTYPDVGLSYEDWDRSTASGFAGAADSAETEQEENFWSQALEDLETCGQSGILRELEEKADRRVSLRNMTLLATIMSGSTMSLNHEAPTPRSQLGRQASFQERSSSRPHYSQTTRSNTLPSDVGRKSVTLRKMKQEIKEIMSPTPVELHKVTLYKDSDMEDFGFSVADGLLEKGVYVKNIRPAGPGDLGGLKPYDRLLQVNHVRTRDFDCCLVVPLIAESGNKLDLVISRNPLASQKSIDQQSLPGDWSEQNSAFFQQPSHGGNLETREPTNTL
The gist of the method: as §1

Ends that are not written are not given here. Peptide text beside a SMILES is read from it. * marks the point of attachment. Biotin = O=C1N[C@H]2[C@H](CS[C@H]2CCCCC(=O)*)N1

T3 sequence (Q07157 whole entry, the tested form may be a part): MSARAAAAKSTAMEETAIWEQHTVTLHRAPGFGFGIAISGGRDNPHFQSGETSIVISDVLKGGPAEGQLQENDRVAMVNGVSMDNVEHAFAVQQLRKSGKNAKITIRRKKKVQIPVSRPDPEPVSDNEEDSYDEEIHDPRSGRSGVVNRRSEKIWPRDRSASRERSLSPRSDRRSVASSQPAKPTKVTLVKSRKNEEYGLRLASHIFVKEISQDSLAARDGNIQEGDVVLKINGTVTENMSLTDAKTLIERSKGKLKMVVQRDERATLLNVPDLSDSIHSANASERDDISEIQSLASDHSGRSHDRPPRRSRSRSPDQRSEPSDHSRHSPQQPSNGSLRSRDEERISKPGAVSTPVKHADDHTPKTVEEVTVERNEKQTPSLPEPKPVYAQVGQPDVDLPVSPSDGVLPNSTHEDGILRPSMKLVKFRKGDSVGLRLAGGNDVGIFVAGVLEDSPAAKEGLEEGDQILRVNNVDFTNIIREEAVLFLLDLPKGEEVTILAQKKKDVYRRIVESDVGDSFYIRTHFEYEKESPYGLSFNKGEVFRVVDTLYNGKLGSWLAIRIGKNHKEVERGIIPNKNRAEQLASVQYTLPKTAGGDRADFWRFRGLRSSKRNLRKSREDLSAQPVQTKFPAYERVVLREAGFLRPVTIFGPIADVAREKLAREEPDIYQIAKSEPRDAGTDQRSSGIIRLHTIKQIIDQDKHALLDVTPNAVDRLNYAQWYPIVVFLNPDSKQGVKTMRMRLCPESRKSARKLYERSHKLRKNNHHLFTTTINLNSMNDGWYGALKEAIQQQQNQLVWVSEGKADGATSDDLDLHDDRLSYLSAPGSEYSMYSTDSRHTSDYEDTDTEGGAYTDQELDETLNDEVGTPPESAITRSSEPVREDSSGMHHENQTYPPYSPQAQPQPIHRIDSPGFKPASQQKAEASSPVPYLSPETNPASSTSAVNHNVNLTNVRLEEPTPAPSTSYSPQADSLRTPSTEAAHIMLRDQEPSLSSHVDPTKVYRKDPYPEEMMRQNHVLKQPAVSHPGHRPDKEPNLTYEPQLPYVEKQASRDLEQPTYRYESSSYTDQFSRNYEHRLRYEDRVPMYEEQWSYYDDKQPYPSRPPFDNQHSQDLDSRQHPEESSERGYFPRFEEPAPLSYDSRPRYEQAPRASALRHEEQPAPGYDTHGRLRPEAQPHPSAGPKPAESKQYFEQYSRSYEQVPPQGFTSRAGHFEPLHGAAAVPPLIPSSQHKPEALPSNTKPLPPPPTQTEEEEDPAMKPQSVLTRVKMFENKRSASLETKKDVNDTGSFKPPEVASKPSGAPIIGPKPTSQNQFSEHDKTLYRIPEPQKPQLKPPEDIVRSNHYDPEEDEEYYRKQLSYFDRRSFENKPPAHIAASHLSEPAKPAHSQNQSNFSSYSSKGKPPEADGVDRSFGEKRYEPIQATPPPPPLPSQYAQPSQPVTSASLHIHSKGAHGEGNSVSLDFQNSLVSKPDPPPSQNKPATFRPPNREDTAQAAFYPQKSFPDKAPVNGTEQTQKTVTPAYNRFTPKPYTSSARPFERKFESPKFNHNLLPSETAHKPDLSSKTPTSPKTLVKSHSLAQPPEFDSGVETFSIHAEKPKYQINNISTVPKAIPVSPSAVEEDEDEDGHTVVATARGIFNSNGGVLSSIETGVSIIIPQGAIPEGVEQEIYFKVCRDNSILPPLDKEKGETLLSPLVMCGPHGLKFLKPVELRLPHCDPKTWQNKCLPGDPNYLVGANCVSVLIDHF
T1 sequence (P29475 whole entry, the tested form may be a part): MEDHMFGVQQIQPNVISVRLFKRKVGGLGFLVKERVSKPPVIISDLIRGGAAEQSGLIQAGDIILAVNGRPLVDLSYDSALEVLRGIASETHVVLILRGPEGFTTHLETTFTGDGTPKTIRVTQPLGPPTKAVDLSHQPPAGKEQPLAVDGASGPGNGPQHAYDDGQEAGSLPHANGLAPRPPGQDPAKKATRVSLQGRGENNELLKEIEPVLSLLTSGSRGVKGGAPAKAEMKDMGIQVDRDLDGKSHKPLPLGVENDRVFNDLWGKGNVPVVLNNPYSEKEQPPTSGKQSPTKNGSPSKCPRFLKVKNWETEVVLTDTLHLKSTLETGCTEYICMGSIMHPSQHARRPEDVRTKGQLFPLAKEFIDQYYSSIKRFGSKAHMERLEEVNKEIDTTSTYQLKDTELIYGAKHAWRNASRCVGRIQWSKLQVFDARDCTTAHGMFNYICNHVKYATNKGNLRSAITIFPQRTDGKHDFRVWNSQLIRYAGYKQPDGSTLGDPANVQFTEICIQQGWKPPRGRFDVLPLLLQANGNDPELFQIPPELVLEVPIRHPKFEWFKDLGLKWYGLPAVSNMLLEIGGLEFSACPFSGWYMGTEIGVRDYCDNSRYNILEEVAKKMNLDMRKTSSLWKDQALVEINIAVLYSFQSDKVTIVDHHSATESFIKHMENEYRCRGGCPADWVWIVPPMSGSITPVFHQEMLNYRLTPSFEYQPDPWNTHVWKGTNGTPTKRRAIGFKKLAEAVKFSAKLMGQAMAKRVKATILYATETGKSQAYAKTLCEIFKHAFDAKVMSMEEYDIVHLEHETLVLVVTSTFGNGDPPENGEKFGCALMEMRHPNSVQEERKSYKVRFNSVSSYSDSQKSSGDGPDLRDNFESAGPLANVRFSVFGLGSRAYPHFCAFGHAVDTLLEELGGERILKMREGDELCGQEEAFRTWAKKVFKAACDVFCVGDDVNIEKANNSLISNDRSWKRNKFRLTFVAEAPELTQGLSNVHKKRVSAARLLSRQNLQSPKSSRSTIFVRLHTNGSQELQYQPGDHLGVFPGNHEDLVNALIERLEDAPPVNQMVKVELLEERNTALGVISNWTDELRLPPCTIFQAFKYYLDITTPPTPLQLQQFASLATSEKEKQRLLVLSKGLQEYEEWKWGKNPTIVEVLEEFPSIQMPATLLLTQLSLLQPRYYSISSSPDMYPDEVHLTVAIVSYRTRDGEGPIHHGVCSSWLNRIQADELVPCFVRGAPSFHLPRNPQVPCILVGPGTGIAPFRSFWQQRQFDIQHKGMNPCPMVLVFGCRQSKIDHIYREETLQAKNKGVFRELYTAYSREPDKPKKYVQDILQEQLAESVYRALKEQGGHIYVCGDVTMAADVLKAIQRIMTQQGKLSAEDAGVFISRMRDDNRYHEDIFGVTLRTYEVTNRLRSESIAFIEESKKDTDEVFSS

On to TQGFPGPATWRRISSLESEV, for which the Classification in assay [1] is 1 (A450 nm 0-1); in assay [2] it was 4 (A450 nm 3-4).
Turning to `CC[C@H](C)[C@H](NC(=O)[C@H](CCCCN)NC(=O)[C@@H](NC(=O)[C@H](CO)NC(=O)[C@@H]1CCCN1C(=O)[C@H](Cc1ccccc1)NC(=O)[C@@H](NC(=O)[C@@H](NC(=O)[C@H](CCCNC(=N)N)NC(=O)[C@H](CCC(=O)O)NC(=O)[C@H](CC(C)C)NC(=O)[C@H](CC(C)C)NC(=O)[C@H](CC(C)C)NC(=O)[C@@H](NC(=O)CNC(=O)[C@@H](NC(=O)CCCC[C@@H]1SC[C@@H]2NC(=O)N[C@@H]21)C(C)C)[C@@H](C)O)C(C)C)[C@@H](C)CC)C(C)C)C(=O)N[C@@H](C)C(=O)N[C@H](C(=O)N[C@@H](CC(C)C)C(=O)N[C@H](C(=O)O)C(C)C)[C@@H](C)O` [Adenovirus E4 Type9], the Classification in assay [3] (PDZ ZO-1, PDZ Domain 1, PL peptide 10 uM) is reported as 2 (A450 nm 1-2); in assay [1] (PL peptide 10 uM), 5 (A450 nm of 4 more than 2× repeated).
With `CC[C@H](C)[C@H](NC(=O)[C@H](Cc1ccc(O)cc1)NC(=O)[C@@H](NC(=O)[C@@H]1CCCN1C(=O)[C@H](CCC(N)=O)NC(=O)[C@H](CCC(=O)O)NC(=O)[C@H](CCC(N)=O)NC(=O)[C@H](C)NC(=O)[C@@H](NC(=O)[C@H](CC(C)C)NC(=O)[C@H](CC(C)C)NC(=O)[C@H](CCCNC(=N)N)NC(=O)[C@H](Cc1ccc(O)cc1)NC(=O)[C@H](CCSC)NC(=O)[C@H](C)NC(=O)[C@H](C)NC(=O)[C@@H]1CCCN1C(=O)[C@H](CCSC)NC(=O)[C@@H](NC(=O)[C@H](CCCCN)NC(=O)CCCC[C@@H]1SC[C@@H]2NC(=O)N[C@@H]21)[C@@H](C)O)[C@@H](C)O)C(C)C)C(=O)O` [MINT-1] (Biotin-KTMPAAMYRLLTAQEQPVYI-OH; C-terminus assumed), the Classification is reported as 1 (A450 nm 0-1) in assay [3] (PDZ ZO-1, PDZ Domain 1) and 4 (A450 nm 3-4) in assay [1].
On the same counts, the results for `CC[C@H](C)[C@H](NC(=O)[C@H](CC(=O)O)NC(=O)[C@H](CCC(=O)O)NC(=O)[C@H](CCCNC(=N)N)NC(=O)[C@@H](NC(=O)CCCC[C@@H]1SC[C@@H]2NC(=O)N[C@@H]21)[C@@H](C)O)C(=O)N[C@@H](Cc1ccc(O)cc1)C(=O)N[C@H](C(=O)N[C@@H](CC(N)=O)C(=O)N[C@@H](Cc1ccc(O)cc1)C(=O)N1CCC[C@H]1C(=O)N[C@H](C(=O)N[C@@H](Cc1ccccc1)C(=O)N[C@@H](CO)C(=O)N[C@@H](CCCNC(=N)N)C(=O)N[C@@H](CCCNC(=N)N)C(=O)N1CCC[C@H]1C(=O)N[C@@H](CCCCN)C(=O)N[C@H](C(=O)N[C@@H](CCCNC(=N)N)C(=O)N[C@H](C(=O)O)C(C)C)[C@@H](C)O)[C@@H](C)O)C(C)C` [DNAM-1] (Biotin-TREDIYVNYPTFSRRPKTRV-OH; C-terminus assumed) are 2 (A450 nm 1-2) and 1 (A450 nm 0-1).
As to `CC(C)C[C@H](NC(=O)[C@H](C)NC(=O)[C@@H](NC(=O)[C@@H](NC(=O)[C@H](Cc1c[nH]cn1)NC(=O)[C@H](CC(C)C)NC(=O)CNC(=O)[C@H](CCC(N)=O)NC(=O)CNC(=O)CNC(=O)[C@H](C)NC(=O)[C@H](C)NC(=O)[C@H](CCCNC(=N)N)NC(=O)[C@H](C)NC(=O)[C@H](CO)NC(=O)[C@H](CC(=O)O)NC(=O)[C@H](CC(=O)O)NC(=O)[C@H](Cc1c[nH]c2ccccc12)NC(=O)[C@H](C)NC(=O)CCCC[C@@H]1SC[C@@H]2NC(=O)N[C@@H]21)C(C)C)[C@@H](C)O)C(=O)O` [LPAP] (Biotin-AWDDSARAAGGQGLHVTAL-OH; C-terminus assumed), the Classification in assay [1] is recorded as 1 (A450 nm 0-1); in assay [4] (PDZ GRIP1, PDZ Domain 3), 1 (A450 nm 0-1).
On to `CC(C)C[C@H](NC(=O)CNC(=O)[C@@H](NC(=O)[C@H](CO)NC(=O)[C@H](CC(N)=O)NC(=O)[C@H](Cc1ccccc1)NC(=O)CNC(=O)[C@H](C)NC(=O)[C@H](C)NC(=O)[C@H](Cc1ccccc1)NC(=O)[C@@H](NC(=O)CCCC[C@@H]1SC[C@@H]2NC(=O)N[C@@H]21)[C@@H](C)O)[C@@H](C)O)C(=O)N1CCC[C@H]1C(=O)N[C@@H](Cc1c[nH]cn1)C(=O)N[C@@H](CO)C(=O)N[C@H](C(=O)N[C@H](C(=O)N[C@@H](CCCNC(=N)N)C(=O)N[C@H](C(=O)O)C(C)C)[C@@H](C)O)[C@@H](C)O` [Neuroligin] (Biotin-TFAAGFNSTGLPHSTTRV-OH; C-terminus assumed), for which the Classification in assay [3] (PDZ ZO-1, PDZ Domain 1) was 1 (A450 nm 0-1); in assay [1], 1 (A450 nm 0-1).
For “ELLQFCRTPNPALKNGQYWV (Biotin-ELLQFCRTPNPALKNGQYWV)”, the Classification in assay [3] (PDZ ZO-1, PDZ Domain 1) is 5 (A450 nm of 4 more than 2× repeated); in assay [3] (PDZ ZO-1, PDZ Domain 2) it was 4 (A450 nm 3-4); in assay [1] it was 2 (A450 nm 1-2); in assay [4] (PDZ GRIP1, PDZ Domain 5), 1 (A450 nm 0-1); in assay [4] (PDZ GRIP1, PDZ Domain 7) it was 5 (A450 nm of 4 more than 2× repeated).
In the case of `CSCC[C@H](NC(=O)[C@H](C)NC(=O)[C@H](CCCNC(=N)N)NC(=O)CNC(=O)[C@@H](NC(=O)[C@H](Cc1c[nH]c2ccccc12)NC(=O)[C@H](CCCNC(=N)N)NC(=O)CNC(=O)CCCC[C@@H]1SC[C@@H]2NC(=O)N[C@@H]21)[C@@H](C)O)C(=O)N[C@@H](CO)C(=O)N[C@@H](C)C(=O)N[C@@H](Cc1c[nH]c2ccccc12)C(=O)N[C@@H](CCCCN)C(=O)N1CCC[C@H]1C(=O)N[C@H](C(=O)N[C@@H](CCCNC(=N)N)C(=O)N[C@@H](CCCNC(=N)N)C(=O)N[C@@H](CCC(=O)O)C(=O)N[C@H](C(=O)N[C@@H](CCC(=O)O)C(=O)N[C@H](C(=O)O)C(C)C)[C@@H](C)O)[C@@H](C)O` [HPV E6 #35 (modified)] (Biotin-GRWTGRAMSAWKPTRRETEV-OH; C-terminus assumed), the Classification in assay [3] (PDZ ZO-1, PDZ Domain 1) is reported as 1 (A450 nm 0-1); in assay [1] it was 1 (A450 nm 0-1); in assay [2] it was 4 (A450 nm 3-4); in assay [4] (PDZ GRIP1, PDZ Domain 3) it was 2 (A450 nm 1-2); in assay [4] (PDZ GRIP1, PDZ Domain 6) it was 2 (A450 nm 1-2).
For the compound `CC[C@H](C)[C@H](NC(=O)[C@H](Cc1ccc(O)cc1)NC(=O)[C@H](CC(C)C)NC(=O)[C@H](CCC(N)=O)NC(=O)[C@H](Cc1c[nH]cn1)NC(=O)[C@H](CO)NC(=O)[C@H](C)NC(=O)[C@H](CC(C)C)NC(=O)[C@@H](NC(=O)[C@H](CC(=O)O)NC(=O)[C@H](CCSC)NC(=O)[C@H](Cc1ccccc1)NC(=O)[C@@H]1CCCN1C(=O)[C@H](CCCNC(=N)N)NC(=O)[C@@H](NC(=O)[C@H](CC(C)C)NC(=O)[C@H](CC(N)=O)NC(=O)[C@H](CC(=O)O)NC(=O)[C@@H](NC(=O)[C@H](CO)NC(=O)CCCC[C@@H]1SC[C@@H]2NC(=O)N[C@@H]21)[C@@H](C)O)C(C)C)[C@@H](C)O)C(=O)O` [presenilin-2] (Biotin-STDNLVRPFMDTLASHQLYI-OH; C-terminus assumed), the Classification in assay [3] (PDZ ZO-1, PDZ Domain 1) was 1 (A450 nm 0-1); in assay [1], 1 (A450 nm 0-1).
